This is an account of results in paper PMC8619001, “Discovery of New Ginsenol-Like Compounds with High Antiviral Activity” (Molecules, 2021).

Data set [1] deals with influenza virus A/Puerto Rico/8/34 (H1N1). The data set can be described thus: organism not typed. In kind it is cell-based. The conditions noted are these: for IC50: MDCK, 72 h, read-out: IC50 H1N1.
Data set [2] is described as follows: in vitro. The note with it: dog.
Data set [3] relates to HSV-1. Details: method as in PMID 20008902. The conditions noted are these: HSV-1, Figure 1; cited from earlier work.
For data set [4], the system named is influenza virus A/Leningrad/134/17/1957 (H2N2). The conditions noted are these: cited from earlier work.
For data set [5], the target named is HA of A/Puerto Rico/8/34 (Influenza A virus, UniProt P03452). In kind it is biochemical, influenza virus A/Puerto Rico/8/34 (H1N1). The conditions noted are these: pH 5.
A short description of data set [6]: In vivo toxicity study (LD50).
Data set [7] relates to A/Mallard/Pennsylvania/1984 (H5N2). Kind of data set: microbe, parasite or virus in culture. In kind it is cell-based, influenza virus A/mallard/Pennsylvania/10218/84 (H5N2). The note with it: Influenza A virus, H1N1 / H5N2, MDCK, in Anas platyrhynchos, 72 h, read-out: IC50 H1N1.
The subject of data set [8] is B/Florida/4/2006 (Yamagata-like). Kind of data set: microbe, parasite or virus in culture. In kind it is cell-based, influenza virus B/Florida/4/2006 (Yamagata-like). The note with it: Influenza B virus, MDCK, 72 h, read-out: IC50 H1N1.
For data set [9], the system named is A/California/7/2009 (H1N1) pdm09. The data set can be described thus: microbe, parasite or virus in culture. In kind it is cell-based, influenza virus A/California/07/09 (H1N1)pdm09. The note with it: Influenza A virus, H1N1, MDCK, 72 h, read-out: IC50 H1N1.
In data set [10] the test system is A/Aichi/2/1968 (H3N2). The data set can be described thus: microbe, parasite or virus in culture. In kind it is cell-based, influenza virus A/Aichi/2/68 (H3N2). The conditions noted are these: Influenza A virus, H1N1 / H3N2, MDCK, 72 h, read-out: IC50 H1N1.
Data set [11] deals with viral hemagglutinin (HA) of influenza virus A/Puerto Rico/8/34 (H1N1) (Influenza A virus, UniProt P03452). In kind it is biochemical.
In data set [12] the test system is HA of influenza viruses A of H3, H5, and H7 subtypes and influenza virus B. In kind it is biochemical. The conditions noted are these: pH 5.
The subject of data set [13] is HA of A/Vladivostok/2/2009 (H1N1). In kind it is biochemical, influenza virus A/Vladivostok/2/2009 (H1N1). The note with it: pH 5.
In data set [14] the test system is A/Anhui/1/2013 (H7N9). Kind of data set: microbe, parasite or virus in culture. In kind it is cell-based, influenza virus A/Anhui/1/2013 (H7N9). The note with it: Influenza A virus, H1N1 / H7N9, MDCK, 72 h, read-out: IC50 H1N1.
Data set [15] relates to HA of A/California/7/2009 (H1N1). In kind it is biochemical, influenza virus A/California/07/09 (H1N1)pdm09. The note with it: pH 5.
Data set [16] deals with influenza virus A/Puerto Rico/8/1934 (H1N1). The data set can be described thus: organism not typed. In kind it is cell-based, influenza virus A/Puerto Rico/8/34 (H1N1). The conditions noted are these: MDCK, 24 h, read-out: IC50 (virus yield reduction).
The subject of data set [17] is influenza virus A/Puerto Rico/8/34 (H1N1). In kind it is cell-based.

As a reminder, the IC50 is the midpoint of a concentration-inhibition curve. For orientation: melting point means the temperature of the solid-liquid transition. As a reminder, the LD50 is the dose expected to kill half of the subjects tested. High values mean a less toxic substance, low ones a more toxic substance.

viral hemagglutinin (HA) of influenza virus A/Puerto Rico/8/34 (H1N1), sequence (P03452 18-343 limits assumed): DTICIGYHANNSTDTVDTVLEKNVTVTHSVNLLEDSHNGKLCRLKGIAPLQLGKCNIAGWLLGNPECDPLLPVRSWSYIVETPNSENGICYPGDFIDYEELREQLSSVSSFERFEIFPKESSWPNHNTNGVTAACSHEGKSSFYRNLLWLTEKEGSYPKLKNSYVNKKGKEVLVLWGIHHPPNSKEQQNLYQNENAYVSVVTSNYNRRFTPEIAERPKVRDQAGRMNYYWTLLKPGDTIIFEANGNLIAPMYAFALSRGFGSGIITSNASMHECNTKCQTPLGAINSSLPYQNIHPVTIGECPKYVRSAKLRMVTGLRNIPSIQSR
viral hemagglutinin (HA) of influenza virus A/Puerto Rico/8/34 (H1N1), sequence (P03452 344-565 limits assumed): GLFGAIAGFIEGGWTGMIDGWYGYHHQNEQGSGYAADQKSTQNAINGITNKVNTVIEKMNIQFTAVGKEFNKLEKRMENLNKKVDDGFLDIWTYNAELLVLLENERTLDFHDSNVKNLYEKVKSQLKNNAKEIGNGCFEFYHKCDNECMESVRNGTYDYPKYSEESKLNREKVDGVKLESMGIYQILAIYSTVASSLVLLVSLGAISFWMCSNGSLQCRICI
HA of A/Puerto Rico/8/34, sequence (P03452 18-343 limits assumed): as the sequence (P03452 18-343 limits assumed) above
HA of A/Puerto Rico/8/34, sequence (P03452 344-565 limits assumed): as the sequence (P03452 344-565 limits assumed) above

Turning to `CCOC(=O)C1=C[C@@H](OC(CC)CC)[C@H](NC(C)=O)[C@@H](N)C1` [Oseltamivir, reference compound], the IC50 in data set [1] came to 310 ± 40 nM. This compound also came in with a CC50 in [2] of over 200 µM.
For the compound `CC(N)C12CC3CC(CC(C3)C1)C2` (stereo not drawn) [Rimantadine, reference compound], in data set [1], the SI is 5 and the half-maximal inhibitory concentration (IC50) amounted to 67000 ± 4900 nM. Also, the CC50 in data set [2] came to 335 ± 27 µM.
Turning to `C=C1CCC2OC2(C)CCC2C1CC2(C)C` (stereo not drawn) [beta-Caryophyllene oxide], the SI in data set [3] is reported as 25.
In the case of `CC(=S)NC12CC(C)(C)C3CCC1(C)CCCC32C` (stereo not drawn) [Compound 3, N-(2,2,4,7a-tetramethyloctahydro-3aH-1,4-ethanoinden-3a-yl)ethanethioamide], in data set [1], the SI is reported as 1000 and the IC50 is 1130 ± 190 nM. The compound also had a CC50 in data set [2] of over 1130 µM.
Turning to `NC(=O)c1ncn([C@@H]2O[C@H](CO)[C@@H](O)[C@H]2O)n1` [Ribavirin, reference compound], in data set [1], the SI is reported as over 81 and the IC50 was 24600 ± 3700 nM. Moreover, the CC50 at 72 h in data set [2] is over 2 mM.
Turning to `C=C1CC/C=C(\C)CC[C@@H]2[C@@H]1CC2(C)C` [Caryophyllene], the SI in [3] is listed as 140.
The compound `CCC(=O)NC12CC(C)(C)C3CCC1(C)CCCC32C` (stereo not drawn) [Compound 1b, N-(2,2,4,7a-tetramethyloctahydro-3aH-1,4-ethanoinden-3a-yl)propionamide] yielded a melting point of 103 °C. Besides, in [1], the SI is listed as 890 and the half-maximal inhibitory concentration (IC50) was 144 ± 19 nM. The compound also displayed a CC50 in data set [2] of 128 ± 9.4 µM.
As for `C[C@H]1CC[C@@]2(O)C(C)(C)[C@@H]3CC[C@@]2(C)[C@H]1C3` [Patchouli alcohol], the SI in [4] is reported as 4.9.
As to `CC(C)C(=O)NC12CC(C)(C)C3CCC1(C)CCCC32C` (stereo not drawn) [Compound 1c, N-(2,2,4,7a-tetramethyloctahydro-3aH-1,4-ethanoinden-3a-yl)isobutyramide], the melting point came out at 103 °C. In data set [1], the SI is given as 5000 and the IC50 came to 210 ± 29 nM. This compound returned a CC50 in data set [2] of over 1030 µM.
As to `CC(C)=CCC/C(C)=C/CC/C(C)=C/CO` [Farnesol], the SI in data set [3] is given as 11.
As for `CC(=O)NC12CC(C)(C)C3CCC1(C)CCCC32C` [Compound 1a, (1S,3aR,4R,7aS)-N-(2,2,4,7a-tetramethyloctahydro-1,4-etanoinden-3a-yl)-acetamide], the “Inhibition of fusogenic activity of viral HA” value in [5] is “highest activity”; in data set [12], “did not decrease their fusogenic activity, or this effect was observed only at the highest concentrations”; in data set [13], “highest activity”; in [15] it was “less sensitive”. In data set [6], this compound showed an LD50 of over 5000 mg/kg. Besides, the half-maximal inhibitory concentration (IC50) in data set [1] worked out at 152 ± 30 nM; in data set [7] it was 133 ± 15.6 µM; in data set [8], 1.13 ± 0.141 mM; in [9], 10.7 ± 1.3 µM; in [10], 789 ± 82 µM; in data set [14] it was 126 ± 11.8 µM. Besides, the IC50 in [16] worked out at 150 nM. Besides, the “Effect on the hemagglutinating titre of the virus” value in data set [11] is “did not change the hemagglutinating titre of the virus”. Also, in data set [2], the CC50 was over 1140 µM. In data set [17], the “Period of presence in the culture medium giving the most pronounced effect” value is 0 to 2 h post-infection (hpi).
`CC1(C)CC2(N)C3(C)CCCC2(C)C1CC3.Cl` (stereo not drawn) [Compound 2, 2,2,4,7a-tetramethyloctahydro-3aH-1,4-ethanoinden-3a-amine hydrochloride] had a melting point of 257.8 to 261.3 °C. Further, in data set [1], the SI came out at 34 and the IC50 was found to be 450 ± 60 nM. The compound also came in with a CC50 in data set [2] of 15.4 ± 1.2 µM.
In the case of `CC1(C)CC2(NC(=O)c3ccccc3)C3(C)CCCC2(C)C1CC3` (stereo not drawn) [Compound 1d, N-(2,2,4,7a-tetramethyloctahydro-3aH-1,4-ethanoinden-3a-yl)benzamide], in data set [1], the SI is given as 15 and the IC50 was found to be 9200 ± 1100 nM. The compound also came in with a CC50 in [2] of 141 ± 11.5 µM.
